Test results: the supplement of paper PMC10307832

Legend:
Experiment in all cases: relative viability (nuclei count vs DMSO), 5 days (fraction); higher = more cells survive
NCI-H322M = tested on: NCI-H322M
In short: (§1)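 Cells from lung cancer lines were seeded into 1536-well plates and, one day later, dosed by pin tool. Treatments were either a single drug or a fixed dose of an anchor drug with five library-drug doses (not always all listed) in √10 steps. After 5 days, nuclei were stained in a one-step fixation (final 0.05% Triton X-100, 1% formaldehyde, 1 ug/ml Hoechst) and counted on 4× images, and relative viability is the treated-to-vehicle nuclei ratio, as the median of duplicate plates.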

NCI-H1944 = tested on: NCI-H1944
In short: as §1

NCI-H647 = tested on: NCI-H647
In short: as §1

NCI-H3122 = tested on: NCI-H3122
In short: as §1

201T = tested on: 201T
In short: as §1

LXF-289 = tested on: LXF-289
In short: as §1

NCI-H1792 = tested on: NCI-H1792
In short: as §1

LCLC-103H = tested on: LCLC-103H
In short: as §1

NCI-H2228 = tested on: NCI-H2228
In short: as §1

BEN = tested on: BEN
In short: as §1

RERF-LC-KJ = tested on: RERF-LC-KJ
In short: as §1

NCI-H1395 = tested on: NCI-H1395
In short: as §1

LCLC-97TM1 = tested on: LCLC-97TM1
In short: as §1

SK-LU-1 = tested on: SK-LU-1
In short: as §1

HCC-827 = tested on: HCC-827
In short: as §1

NCI-H1793 = tested on: NCI-H1793
In short: as §1

CAL-12T = tested on: CAL-12T
In short: as §1

NCI-H1437 = tested on: NCI-H1437
In short: as §1

NCI-H1650 = tested on: NCI-H1650
In short: as §1

NCI-H2405 = tested on: NCI-H2405
In short: as §1

NCI-H2087 = tested on: NCI-H2087
In short: as §1

`Nc1ccn([C@@H]2O[C@H](CO)[C@@H](O)[C@@H]2O)c(=O)n1` [Cytarabine] + Nc1nc2[nH]cc(CCc3ccc(C(=O)N[C@@H](CCC(=O)O)C(=O)O)cc3)c2c(=O)[nH]1 [Pemetrexed] (partner 0.2 µM) was tested, and the relative viability (NCI-H322M; first compound 0.005 µM) was 0.609, the relative viability (NCI-H322M; first compound 0.01581 µM) was 0.628 and the relative viability (NCI-H322M; first compound 0.05 µM) was 0.572. For the same compound, the relative viability (NCI-H322M; first compound 0.1581 µM) was 0.408, the relative viability (NCI-H322M; first compound 0.5 µM) was 0.384 and the relative viability (NCI-H1944; first compound 0.005 µM) was 0.505. It also gave a relative viability (NCI-H1944; first compound 0.01581 µM) of 0.312, a relative viability (NCI-H1944; first compound 0.05 µM) of 0.241 and a relative viability (NCI-H1944; first compound 0.1581 µM) of 0.14. For the same compound, the relative viability (NCI-H1944; first compound 0.5 µM) was 0.116, the relative viability (NCI-H647; first compound 0.005 µM) was 0.185 and the relative viability (NCI-H647; first compound 0.01581 µM) was 0.174. The relative viability (NCI-H647; first compound 0.05 µM) was 0.0984, the relative viability (NCI-H647; first compound 0.1581 µM) was 0.0797 and the relative viability (NCI-H647; first compound 0.5 µM) was 0.0683. For the same compound, the relative viability (NCI-H3122; first compound 0.005 µM) was 0.207, the relative viability (NCI-H3122; first compound 0.01581 µM) was 0.196 and the relative viability (NCI-H3122; first compound 0.05 µM) was 0.227. For the same compound, the relative viability (NCI-H3122; first compound 0.1581 µM) was 0.381, the relative viability (NCI-H3122; first compound 0.5 µM) was 0.156 and the relative viability (201T; first compound 0.005 µM) was 0.361. For the same compound, the relative viability (201T; first compound 0.01581 µM) was 0.353, the relative viability (201T; first compound 0.05 µM) was 0.309 and the relative viability (201T; first compound 0.1581 µM) was 0.325. It also gave a relative viability (201T; first compound 0.5 µM) of 0.25, a relative viability (LXF-289; first compound 0.005 µM) of 0.729 and a relative viability (LXF-289; first compound 0.01581 µM) of 0.864. The relative viability (LXF-289; first compound 0.05 µM) was 0.808, the relative viability (LXF-289; first compound 0.1581 µM) was 0.36 and the relative viability (LXF-289; first compound 0.5 µM) was 0.268. The relative viability (NCI-H1792; first compound 0.01581 µM) was 0.672, the relative viability (NCI-H1792; first compound 0.05 µM) was 0.751 and the relative viability (NCI-H1792; first compound 0.1581 µM) was 0.182. It also gave a relative viability (NCI-H1792; first compound 0.5 µM) of 0.115, a relative viability (LCLC-103H; first compound 0.005 µM) of 0.458 and a relative viability (LCLC-103H; first compound 0.01581 µM) of 0.467. It also gave a relative viability (LCLC-103H; first compound 0.05 µM) of 0.497, a relative viability (LCLC-103H; first compound 0.1581 µM) of 0.422 and a relative viability (LCLC-103H; first compound 0.5 µM) of 0.456. It also gave a relative viability (NCI-H2228; first compound 0.005 µM) of 0.32, a relative viability (NCI-H2228; first compound 0.01581 µM) of 0.275 and a relative viability (NCI-H2228; first compound 0.05 µM) of 0.134. The relative viability (NCI-H2228; first compound 0.1581 µM) was 0.0993, the relative viability (NCI-H2228; first compound 0.5 µM) was 0.133 and the relative viability (BEN; first compound 0.005 µM) was 0.632. It also gave a relative viability (BEN; first compound 0.01581 µM) of 0.512, a relative viability (BEN; first compound 0.05 µM) of 0.383 and a relative viability (BEN; first compound 0.1581 µM) of 0.366. The relative viability (BEN; first compound 0.5 µM) was 0.287, the relative viability (RERF-LC-KJ; first compound 0.005 µM) was 0.453 and the relative viability (RERF-LC-KJ; first compound 0.01581 µM) was 0.502. The relative viability (RERF-LC-KJ; first compound 0.05 µM) was 0.381, the relative viability (RERF-LC-KJ; first compound 0.1581 µM) was 0.34 and the relative viability (RERF-LC-KJ; first compound 0.5 µM) was 0.249. For the same compound, the relative viability (NCI-H1395; first compound 0.005 µM) was 0.798, the relative viability (NCI-H1395; first compound 0.01581 µM) was 0.566 and the relative viability (NCI-H1395; first compound 0.05 µM) was 0.638. The relative viability (NCI-H1395; first compound 0.1581 µM) was 0.361, the relative viability (NCI-H1395; first compound 0.5 µM) was 0.326 and the relative viability (LCLC-97TM1; first compound 0.005 µM) was 0.209. For the same compound, the relative viability (LCLC-97TM1; first compound 0.01581 µM) was 0.179, the relative viability (LCLC-97TM1; first compound 0.05 µM) was 0.0983 and the relative viability (LCLC-97TM1; first compound 0.1581 µM) was 0.108. The relative viability (LCLC-97TM1; first compound 0.5 µM) was 0.0633, the relative viability (SK-LU-1; first compound 0.005 µM) was 0.827 and the relative viability (SK-LU-1; first compound 0.01581 µM) was 0.732. For the same compound, the relative viability (SK-LU-1; first compound 0.05 µM) was 0.642, the relative viability (SK-LU-1; first compound 0.1581 µM) was 0.377 and the relative viability (SK-LU-1; first compound 0.5 µM) was 0.331. It also gave a relative viability (HCC-827; first compound 0.005 µM) of 0.222, a relative viability (HCC-827; first compound 0.01581 µM) of 0.281 and a relative viability (HCC-827; first compound 0.05 µM) of 0.161. The relative viability (HCC-827; first compound 0.1581 µM) was 0.152, the relative viability (HCC-827; first compound 0.5 µM) was 0.113 and the relative viability (NCI-H1793; first compound 0.005 µM) was 0.902. The relative viability (NCI-H1793; first compound 0.01581 µM) was 0.827, the relative viability (NCI-H1793; first compound 0.05 µM) was 0.827 and the relative viability (NCI-H1793; first compound 0.1581 µM) was 0.374. The relative viability (NCI-H1793; first compound 0.5 µM) was 0.206, the relative viability (CAL-12T; first compound 0.005 µM) was 0.928 and the relative viability (CAL-12T; first compound 0.01581 µM) was 1.11. The relative viability (CAL-12T; first compound 0.05 µM) was 0.984, the relative viability (CAL-12T; first compound 0.1581 µM) was 0.543 and the relative viability (CAL-12T; first compound 0.5 µM) was 0.249. For the same compound, the relative viability (NCI-H1437; first compound 0.005 µM) was 0.339, the relative viability (NCI-H1437; first compound 0.01581 µM) was 0.344 and the relative viability (NCI-H1437; first compound 0.05 µM) was 0.335. It also gave a relative viability (NCI-H1437; first compound 0.1581 µM) of 0.321, a relative viability (NCI-H1437; first compound 0.5 µM) of 0.258 and a relative viability (NCI-H1650; first compound 0.005 µM) of 0.367. The relative viability (NCI-H1650; first compound 0.01581 µM) was 0.353, the relative viability (NCI-H1650; first compound 0.05 µM) was 0.262 and the relative viability (NCI-H1650; first compound 0.1581 µM) was 0.199. The relative viability (NCI-H1650; first compound 0.5 µM) was 0.158, the relative viability (NCI-H2405; first compound 0.005 µM) was 1 and the relative viability (NCI-H2405; first compound 0.01581 µM) was 0.654. The relative viability (NCI-H2405; first compound 0.05 µM) was 0.61, the relative viability (NCI-H2405; first compound 0.1581 µM) was 0.495 and the relative viability (NCI-H2405; first compound 0.5 µM) was 0.41. It also gave a relative viability (NCI-H2087; first compound 0.005 µM) of 0.631, a relative viability (NCI-H2087; first compound 0.01581 µM) of 0.616 and a relative viability (NCI-H2087; first compound 0.05 µM) of 0.647. For the same compound, the relative viability (NCI-H2087; first compound 0.1581 µM) was 0.57 and the relative viability (NCI-H2087; first compound 0.5 µM) was 0.283.
